Values quoted from earlier work, collected in patent US20130345257A1, “COMPOSITION FOR LUPUS NEPHRITIS AND METHODS OF MAKING AND USING THE SAME” (The Regents of the University of California, priority 2012, published 2013).

How the values were obtained:
[1] = tested on: human lupus; conditions: phase 1b trial; cited from earlier work
[2] = tested on: murine SLE model; conditions: mouse, in vivo; cited from earlier work
[3] = pulled out of a clinical trial; cited from earlier work

Structure (SMILES)	Adverse events profile [1]	Efficacy in murine SLE model [2]	Toxicity in clinical trial [3]
CCc1cccc2c1c(O)c(C(=O)N(CC)c1ccccc1)c(=O)n2C [paquinimod]	favorable adverse events profile	effective	–
CN(C(=O)c1c(O)c2ccccc2n(C)c1=O)c1ccccc1 [roquinimex]	–	–	serious cardiovascular toxicities
